According to PubChem BioAssay (NCI):
Values joined by “and” are separate entries in the source; they are usually repeats but may differ in a detail not shown here. Equal entries are not always repeated.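 How tested: cells in 96-well plates exposed to compound for 48 hours at five concentrations. GI50: concentration for 50% inhibition of growth. At the TGI there is no net growth.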

How the values were obtained:
Experiment in all cases: NCI-60 cell line screen, 48 h
[1] = test system: MDA-N
[2] = test system: M19-MEL melanoma
[3] = test system: KM20L2 colon
[4] = test system: DLD-1 colon
[5] = test system: DMS 273 small cell lung
[6] = test system: RXF-631 renal
[7] = test system: SNB-78 CNS
[8] = test system: DMS 114 small cell lung
[9] = test system: HOP-18 NSCLC

SMILES	TGI [1]	TGI [2] [µM]	TGI [3] [µM]	TGI [4] [µM]	TGI [5] [µM]	TGI [6] [µM]	TGI [7] [µM]	TGI [8] [µM]	TGI [9] [µM]	also measured
O=C1CC(C(=O)O)Cc2c(Br)ccc(O)c21 (stereo not given)	> 100 µM									
CC12CCCC(C#N)(C1)OC2=O (stereo not given)		> 100	> 100	> 100	> 100	> 100	> 100			
CN1C(c2ccccc2)CC(C)(O)CC1c1ccccc1 (stereo not given)		> 100	> 100	> 100	> 100	> 100	> 100	> 100		
NC(CP(=O)(O)O)C(=O)O (stereo not given)	> 100 µM									
COC(=O)CC1C2(C)C3=C(C)C(c4ccoc4)CC3OC2C2OC(=O)C3(C)C=CC(=O)C1(C)C23 (stereo not given)	2.93 µM									
O=C(O)CCC(=O)Oc1ccc(O)c2c1CCCC2=O		> 100	> 100	> 100	> 100		> 100	> 100	> 100	
N#CC(C(=O)CCC(=O)Nc1ccc(Cl)cc1)c1ccc(Cl)cc1 (stereo not given)		> 100	> 100	> 100	> 100	> 100	> 100	> 100	> 100	
Cc1cc(Cl)ccc1NC(=O)CC1SC(=NC(=O)c2ccccc2Cl)NC1=O (stereo not given)		35.8	> 100	34	37		50.9	41.8		
O=C(CN(Cc1ccccc1)Cc1ccccc1)N1CCc2c([nH]c3ccccc23)C1c1cccnc1 (stereo not given)		31.4	25.5	> 100	82.8		> 100	72.8	> 100	
CCOC(=O)C1=C(C)NC(C)=C(C(=O)OCCNC(=O)c2ccc(N=[N+]=[N-])cc2)C1c1ccccc1C(F)(F)F (stereo not given)	21.5 µM									
CC1NC(C(=O)O)Cc2cc(O)c(O)cc21 (stereo not given)	> 100 µM									
CCOC(=O)NC(=O)c1cn(CCCCCCCCCCC(=O)NCCCN2CCN(CCCNC(=O)CCCCCCCCCCn3cc(C(=O)NC(=O)OCC)c(=O)[nH]c3=O)CC2)c(=O)[nH]c1=O		> 100	> 100	> 100	> 100		> 100	> 100	> 100	
Cc1ccc2nc(Sc3c([N+](=O)[O-])ncn3C)[nH]c2c1		57.2	> 100	49.8	40.1	32.3	76.3	28.9	> 100	
N.N.N.N.N.N#Cc1nn[n-]n1.[Cl-].[Co+3]			> 100	> 100	> 100		> 100		> 100	GI50 [3]: > 100 µM; GI50 [9]: > 100 µM; GI50 [4]: > 100 µM; GI50 [5]: > 100 µM; GI50 [7]: > 100 µM
CC(=O)n1nnc2ccc([N+](=O)[O-])cc21		> 100	> 100	> 100	> 100		> 100	> 100	> 100	
COC(=O)C(=O)C(C#N)c1cccc(Cl)c1 (stereo not given)		> 100	> 100	> 100	> 100		> 100		> 100	
CC(=O)NC(CS)C(=O)O (stereo not given)	> 100 µM									

SMILES	TGI [1]	TGI [2] [µM]	TGI [3] [µM]	TGI [4] [µM]	TGI [5] [µM]	TGI [6] [µM]	TGI [7] [µM]	TGI [8] [µM]	TGI [9] [µM]	also measured
Cn1nc(-c2ccccc2)c2c(/C=C/c3ccc(Cl)cc3)onc2c1=O		> 100	69.5	> 100	> 100	> 100		> 100	26.8	
N#CCCN(C1=NN(C(=O)CC(=O)Nc2ccc(Cl)cc2)C(c2ccccc2)C1)c1ccc(Cl)cc1 (stereo not given)		> 100	> 100	> 100	> 100	> 100	> 100	> 100	> 100	
Cn1cnc([N+](=O)[O-])c1Sc1nc2ccccc2o1		23.7	10.1	16.6	9.93	15.1	32.3	4.89	1.36	
COc1ccc(NC(=S)C#N)cc1	> 100 µM									
O=CC1CCC=CC1NC(=O)OCc1ccccc1 (stereo not given)		> 100		> 100	> 100		> 100	53.6	> 100	
C=C[C@H]1CN2CCc3c([nH]c4c([C@@H]5CCCN5C)c(O)ccc34)[C@@H]2C[C@@H]1C[C@H]1c2[nH]c3ccccc3c2CCN1C	3.06 µM and 3.3 µM									GI50 [1]: 1.5 µM
O=C(CCC(=O)Nc1ccc(Cl)cc1)CC(=O)c1ccc2ccccc2c1		> 100	> 100	> 100	> 100	> 100	> 100	> 100	> 100	
O=C(Nc1ccccc1)n1cc(-c2ccccn2)c(N2CCOCC2)n1		> 100	8.69	> 100	42.1		> 100	> 100	> 100	
CN(C)CCCOc1ccc(/C=C2/CCC/C(=C/c3ccc(OCCCN(C)C)cc3)C2=O)cc1			0.537	3.21	2.96		9.06	3.11	12.3	
CC[O-].CC[O-].COc1ccc(C(=O)[CH-]C(C)=O)cc1OC.COc1ccc(C(=O)[CH-]C(C)=O)cc1OC.[Ti+4]			> 100	> 100	> 100	> 100	> 100	> 100	> 100	GI50 [3]: 53.1 µM; GI50 [9]: 29.8 µM; GI50 [4]: 77.5 µM; GI50 [5]: 44.4 µM; GI50 [6]: 49.4 µM; GI50 [8]: > 100 µM; GI50 [7]: 72.2 µM
CCC(C)C(=O)O[C@H]1C(=O)O[C@@H]2C[C@H]3C(C)=CC(=O)[C@@H](O)[C@]3(C)[C@H]3[C@@H](O)[C@H](O)[C@@]4(C)OC[C@]32[C@@H]14 (stereo not given in full)	0.0543 µM	0.0909	0.31	0.317	0.0468		0.394	0.0431	0.596	
C/C=C(\C)c1cc(=O)c2c(C)cc3c(c2o1)C(OC)(OC(C)=O)c1c(O)c(C2CC(C)(N(C)C)C(OC(C)=O)C(C)O2)cc(C2CC(N(C)C)C(OC(C)=O)C(C)O2)c1C3=O (stereo not given)	4.71 µM									
O=C(Nc1ccn(C2CC(I)C(COC(c3ccccc3)(c3ccccc3)c3ccccc3)O2)c(=O)n1)c1ccccc1 (stereo not given)	14.6 µM									
Cc1cc2nc3c(=O)[nH]c(=O)nc-3n(CC(O)C(O)C(O)CO)c2cc1N (stereo not given)		> 100			> 100	> 100	> 100	> 100	> 100	
O=C[C@]12CC=C3OC4OC5(CCCCC5)OC4[C@H]3[C@H]1C(=O)C=CC2=O (stereo not given in full)		54.5		38.9	> 100	> 100	29.4	50.8		
O=c1c2ccccc2nc2n1CCc1c-2[nH]c2cc3c(cc12)OCO3	> 25 µM									
